“Also recorded” adds a separate entry of the source. Read-outs that look alike come from different tables or passages of the source.
Assays:
[1] = biological target: complex I (NADH:quinone reductase) (Echinococcus multilocularis, UniProt A0A068Y553+A0A068Y9L9+Q9TE76); test: NADH:quinone reductase activity (complex I) in protoscoleces mitochondrial fraction; format: biochemical; conditions: for IC50: E. multilocularis protoscoleces mitochondria, read-out: IC50 NADH:decyl rhodoquinone reductase (complex I)
Description: (§1) Cyst tissues containing E. multilocularis (Nemuro strain) protoscoleces isolated from infected hispid cotton rats, Sigmodon hispidus, were used. The tissues were shredded through a metal mesh (0.5 mm diameter). Then, the tissues were repeatedly suspended and washed with physiological saline in a tall beaker to obtain protoscoleces by exploiting the buoyancy difference between protoscoleces and other tissue ([26]). The obtained protoscoleces were homogenized with a motor-driven homogenizer to prepare the mitochondrial fraction. The homogenate was diluted with mitochondrial preparation buffer (210 mM mannitol, 10 mM sucrose, 1 mM disodium EDTA, and 50 mM Tris-HCl [pH 7.5]) supplemented with 10 mM sodium malonate to 5 times the volume of the original protoscolex homogenate, and then centrifuged at 800 × g for 10 min (4°C) to remove cell debris and nuclei. The supernatant was then centrifuged at 8,000 × g for 10 min (4°C) to obtain the mitochondrial pellet. Next, the pellet was resuspended in mitochondrial preparation buffer (without malonate) and centrifuged at 8,000 × g for 10 min (4°C). The enriched mitochondrial fraction was finally suspended in approximately 0.5 to 1.0 mL of mitochondrial preparation buffer without malonate and frozen at −50°C. The mitochondrial fraction from A. suum was prepared essentially as described previously ([27], [28]).
NADH:quinone reductase activity (complex I), succinate:quinone reductase activity (complex II), and succinate:cytochrome c reductase activity (complexes II to III) were measured using a UV-3000 spectrophotometer (Shimadzu, Kyoto, Japan) as described previously ([4], [6]). Briefly, all enzyme assays using mitochondrial fractions were performed in 0.5- or 1.0-mL reaction mixtures at 25°C. A freeze/thaw process was performed before the assay to ensure that the mitochondrial membrane was permeable to the solutes. The final mitochondrial protein concentration was 50 μg/mL. NADH:quinone reductase activity was measured in 50 mM potassium phosphate buffer (pH 7.4) containing 2 mM potassium cyanide, KCN (Sigma, St. […] The activity assay was started by the addition of 50 μM NADH (Fujifilm-Wako, Tokyo, Japan) and recorded as the rate of NADH consumption as monitored at 340 nm (ε = 6.2 mM^−1 cm^−1). The reagents used in the SQR activity assay were mixed with the reaction buffer containing 50 mM potassium phosphate (pH 7.4) and 0.1% (wt/vol) sucrose monolaurate (DOJINDO, Kumamoto, Japan). […] The reaction was initiated by the addition of 10 mM disodium succinate to the mixture. NADH:cytochrome c activity (complex I to III) was measured in the reaction buffer (30 mM potassium phosphate, 1 mM MgCl2, pH 7.5) containing 2 mM KCN, 50 μM cytochrome c (Nacalai Tesque, Kyoto, Japan), and the inhibitor. The assay was performed after the addition of 100 mM malonate to block complex II activity. The reaction was started by adding 50 μM NADH to the mixture, and the enzyme activity was determined by monitoring the change in absorbance of cytochrome c at 550 nm (ε = 19 mM^−1 cm^−1). IC50 values of AF and its derivatives against the specific activities of mitochondrial respiratory enzymes in protoscoleces were determined. The IC50 of each compound was determined by calculating approximation lines from three or more points on either side of the IC50 concentration.

[2] = biological target: complex II (succinate:quinone reductase, SQR) (Echinococcus multilocularis, UniProt A0A1Z4EAW8+A0A1Z4EAX0+A0A1Z4EAX1); test: Succinate:quinone reductase (SQR) activity (complex II) in protoscoleces mitochondrial fraction; format: biochemical
Description: as §1
(§2) NADH:quinone reductase activity (complex I), succinate:quinone reductase activity (complex II), and succinate:cytochrome c reductase activity (complexes II to III) were measured using a UV-3000 spectrophotometer (Shimadzu, Kyoto, Japan) as described previously ([4], [6]). Briefly, all enzyme assays using mitochondrial fractions were performed in 0.5- or 1.0-mL reaction mixtures at 25°C. A freeze/thaw process was performed before the assay to ensure that the mitochondrial membrane was permeable to the solutes. The final mitochondrial protein concentration was 50 μg/mL. NADH:quinone reductase activity was measured in 50 mM potassium phosphate buffer (pH 7.4) containing 2 mM potassium cyanide, KCN (Sigma, St. Louis, MO, USA), and 60 μM decylubiquinone (Sigma). The activity assay was started by the addition of 50 μM NADH (Fujifilm-Wako, Tokyo, Japan) and recorded as the rate of NADH consumption as monitored at 340 nm (ε = 6.2 mM^−1 cm^−1). The reagents used in the SQR activity assay were mixed with the reaction buffer containing 50 mM potassium phosphate (pH 7.4) and 0.1% (wt/vol) sucrose monolaurate (DOJINDO, Kumamoto, Japan). SQR activity was determined by monitoring the change in absorbance of quinone at 278 nm (ε = 15 mM^−1 cm^−1) in the presence of 60 μM decylubiquinone, 2 mM KCN, and the inhibitor. The reaction was initiated by the addition of 10 mM disodium succinate to the mixture. NADH:cytochrome c activity (complex I to III) was measured in the reaction buffer (30 mM potassium phosphate, 1 mM MgCl2, pH 7.5) containing 2 mM KCN, 50 μM cytochrome c (Nacalai Tesque, Kyoto, Japan), and the inhibitor. The assay was performed after the addition of 100 mM malonate to block complex II activity. The reaction was started by adding 50 μM NADH to the mixture, and the enzyme activity was determined by monitoring the change in absorbance of cytochrome c at 550 nm (ε = 19 mM^−1 cm^−1). IC50 values of AF and its derivatives against the specific activities of mitochondrial respiratory enzymes in protoscoleces were determined. The IC50 of each compound was determined by calculating approximation lines from three or more points on either side of the IC50 concentration.

[3] = biological target: complex I and III (NADH:cytochrome c reductase) (Echinococcus multilocularis, UniProt Q9TE80); test: NADH:cytochrome c reductase activity (complex I to III) in protoscoleces mitochondrial fraction; format: biochemical
Description: as §1, §2

[4] = test system: E. multilocularis protoscoleces; test: Ex vivo culture assay of live protoscoleces, viability by trypan blue exclusion; format: cell-based, Echinococcus multilocularis; conditions: 50 μM; for antiparasitic effect on protoscoleces in culture assay: both anaerobic and aerobic conditions
Description: FIG 5 Viability of E. multilocularis protoscoleces in ex vivo culture assay. The E. multilocularis protoscoleces were treated with ascofuranone (AF) and its derivatives in culture under aerobic and anaerobic conditions (O2 <0.3%). Each compound was added to the culture medium at a final concentration of 50 μM. The control group was supplemented with 0.5% (vol/vol) dimethyl sulfoxide (DMSO). Atovaquone (ATV) was used as positive control and to ensure anaerobic conditions in the culture. The viability of protoscoleces was evaluated by their ability to exclude trypan blue. The data are presented as the mean ± standard deviation (n = 3).
The obtained protoscoleces were cultured in Connaught Medical Research Laboratories 1066 medium (Gibco, Grand Island, NY, USA) containing 0.5% (wt/vol) yeast extract (Difco Laboratories, Detroit, MI, USA), 2 mM L-glutamine (Gibco), 23 mM 4-(2-hydroxyethyl)-1-piperazineethanesulfonic acid, 0.5% (wt/vol) D (+)-glucose, 0.4 mM sodium taurocholate (Wako Pure Chemical Industries, Osaka, Japan), 57 mM sodium hydrogen carbonate, and 100 U/mL penicillin-streptomycin (Gibco). The protoscoleces were observed daily for seven consecutive days, and half of the medium was replaced on day 3. For anaerobic cultures, six-well plates were sealed in plastic containers with oxygen-detecting agents and oxygen scavengers (Aneromeito, Nissui Pharmaceutical, Tokyo, Japan) to keep the oxygen concentration below 0.3% at 37°C. The protoscoleces were treated with AF and its derivatives at a final concentration of 50 μM in the culture medium, and the duration of parasite elimination was investigated. The control group was supplemented with 0.5% (vol/vol) dimethyl sulfoxide (DMSO), and all conditions were assayed in triplicate. We used ATV in a culture assay as positive control and to ensure anaerobic conditions in the culture ([4], [5]). […] The viability of protoscoleces was determined after microscopic observation of more than 170 protoscoleces per well using the trypan blue exclusion test, as described previously ([4], [6], [33]).

[5] = IC50, E. multilocularis SQR inhibition, Table 5, furanone ring-substituted derivatives, mean ± SEM
[6] = IC50, inhibition of E. multilocularis SQR, Table 2, substitutions on the benzene group, mean ± SEM
[7] = IC50 Succinate:quinone reductase (SQR) (complex II), E. multilocularis protoscoleces mitochondria, mean ± SEM, Table 1
[8] = IC50 against E. multilocularis SQR, Table 3, various side chain lengths, mean ± SEM
[9] = E. multilocularis protoscoleces mitochondria; mean ± SEM; Table 1; read-out: IC50 NADH:cytochrome c reductase (complex I and III)

Sequence of complex II (succinate:quinone reductase, SQR) (A0A1Z4EAV8 entry or part of it): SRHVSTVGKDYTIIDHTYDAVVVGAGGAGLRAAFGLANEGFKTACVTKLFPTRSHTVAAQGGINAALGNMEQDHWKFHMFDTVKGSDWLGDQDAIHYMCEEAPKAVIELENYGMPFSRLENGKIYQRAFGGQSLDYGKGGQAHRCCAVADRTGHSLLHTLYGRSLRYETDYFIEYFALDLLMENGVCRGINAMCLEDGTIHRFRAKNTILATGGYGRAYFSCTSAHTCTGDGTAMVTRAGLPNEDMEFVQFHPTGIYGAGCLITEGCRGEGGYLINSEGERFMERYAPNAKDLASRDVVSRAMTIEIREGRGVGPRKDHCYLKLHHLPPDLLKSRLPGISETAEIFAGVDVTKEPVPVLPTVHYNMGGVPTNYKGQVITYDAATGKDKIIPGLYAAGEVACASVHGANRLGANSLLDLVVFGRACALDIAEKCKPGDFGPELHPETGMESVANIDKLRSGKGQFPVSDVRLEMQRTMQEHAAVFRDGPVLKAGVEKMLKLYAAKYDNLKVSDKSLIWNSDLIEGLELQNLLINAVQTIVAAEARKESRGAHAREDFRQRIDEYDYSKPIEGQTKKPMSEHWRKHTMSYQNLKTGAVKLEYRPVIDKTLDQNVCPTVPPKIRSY
Sequence of complex II (succinate:quinone reductase, SQR) (A0A1Z4EAX1 entry or part of it): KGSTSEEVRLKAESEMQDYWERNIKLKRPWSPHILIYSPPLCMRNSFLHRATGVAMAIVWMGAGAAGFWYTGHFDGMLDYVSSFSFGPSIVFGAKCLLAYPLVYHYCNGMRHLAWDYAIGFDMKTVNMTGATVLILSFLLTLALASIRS
Sequence of complex II (succinate:quinone reductase, SQR) (A0A1Z4EAX0 entry or part of it): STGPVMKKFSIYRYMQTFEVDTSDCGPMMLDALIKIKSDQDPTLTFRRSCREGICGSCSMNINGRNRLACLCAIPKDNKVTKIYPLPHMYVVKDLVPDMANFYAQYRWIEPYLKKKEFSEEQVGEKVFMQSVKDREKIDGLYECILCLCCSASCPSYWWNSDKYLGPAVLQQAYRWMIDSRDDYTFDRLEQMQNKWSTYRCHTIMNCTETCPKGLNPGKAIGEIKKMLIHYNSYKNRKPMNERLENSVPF
Sequence of complex II (succinate:quinone reductase, SQR) (A0A1Z4EAW8 entry or part of it): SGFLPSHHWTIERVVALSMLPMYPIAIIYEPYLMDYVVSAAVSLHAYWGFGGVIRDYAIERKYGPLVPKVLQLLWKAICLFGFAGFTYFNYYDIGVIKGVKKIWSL
Sequence of complex I and III (NADH:cytochrome c reductase) (Q9TE80 entry or part of it): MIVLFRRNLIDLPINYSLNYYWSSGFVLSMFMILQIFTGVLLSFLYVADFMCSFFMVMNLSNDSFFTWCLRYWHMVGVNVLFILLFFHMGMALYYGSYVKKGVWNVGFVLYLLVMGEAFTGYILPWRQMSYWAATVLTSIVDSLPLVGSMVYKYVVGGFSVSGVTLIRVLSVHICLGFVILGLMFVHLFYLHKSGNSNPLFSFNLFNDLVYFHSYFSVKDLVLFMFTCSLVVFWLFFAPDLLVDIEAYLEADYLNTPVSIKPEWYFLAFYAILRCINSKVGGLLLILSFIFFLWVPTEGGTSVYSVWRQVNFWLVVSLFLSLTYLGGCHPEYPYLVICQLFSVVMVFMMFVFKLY
Sequence of complex I and III (NADH:cytochrome c reductase) (Q9GP40 whole entry, further chain): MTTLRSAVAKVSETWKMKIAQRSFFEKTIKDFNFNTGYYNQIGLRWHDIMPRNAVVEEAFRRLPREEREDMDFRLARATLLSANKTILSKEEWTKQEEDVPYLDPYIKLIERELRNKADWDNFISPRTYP
Sequence of complex I and III (NADH:cytochrome c reductase) (Q9TE76 entry or part of it, further chain): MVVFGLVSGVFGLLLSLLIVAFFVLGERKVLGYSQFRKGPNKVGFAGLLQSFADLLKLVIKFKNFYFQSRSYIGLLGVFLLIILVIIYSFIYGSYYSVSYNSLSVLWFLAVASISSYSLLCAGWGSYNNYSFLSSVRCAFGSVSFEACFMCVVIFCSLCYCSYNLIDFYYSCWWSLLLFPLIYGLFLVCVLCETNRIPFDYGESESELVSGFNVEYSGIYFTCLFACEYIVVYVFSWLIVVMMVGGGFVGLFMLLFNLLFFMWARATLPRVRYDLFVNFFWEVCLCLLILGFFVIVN

C/C(=C\Cc1c(O)c(Cl)c(C)c(C=O)c1O)CC/C=C(\C)[C@@H]1CC(=O)C(C)(C)O1 [AF, Ascofuranone]
inhibition of NADH:ubiquinone reductase activity of complex I [1]: not inhibited | IC50 [1]: > 50 µM | IC50 [2, 5]: 1.1 ± 0.21 µM | IC50 [2, 6]: 1.1 ± 0.21 µM | IC50 [2, 7]: 1.1 ± 0.21 µM | IC50 ([3]; read-out: IC50 NADH:cytochrome c reductase (complex I and III); E. multilocularis protoscoleces mitochondria; mean ± SEM; Table 1): 0.057 ± 0.011 µM | viability of protoscoleces during treatment ([4]; aerobic culture): progressively reduced | viability / killing of protoscoleces during treatment ([4]; anaerobic culture (O2 <0.3%)): progressively reduced; also recorded: strong killing effect | antiparasitic effect on protoscoleces in culture assay [4]: strong antiparasitic effect

Cc1c(Cl)c(O)cc(O)c1C=O [Compound C0]
IC50 [2, 8]: > 20 µM

C/C=C/c1c(O)c(Cl)c(C)c(C=O)c1O [Compound C3]
IC50 [2, 8]: 5.4 ± 0.7 µM

CCC/C=C/c1c(O)c(Cl)c(C)c(C=O)c1O [Compound C5]
IC50 [2, 8]: 3.3 ± 0.27 µM

CCCCC/C=C/c1c(O)c(Cl)c(C)c(C=O)c1O [Compound C7]
IC50 [2, 8]: 0.95 ± 0.27 µM

CCCCCCC/C=C/c1c(O)c(Cl)c(C)c(C=O)c1O [Compound C9]
IC50 [2, 8]: 1.2 ± 0.12 µM

CCCCCCCC/C=C/c1c(O)c(Cl)c(C)c(C=O)c1O [Compound C10]
IC50 [2, 8]: 1.2 ± 0.08 µM

CCCCCCCCCC/C=C/c1c(O)c(Cl)c(C)c(C=O)c1O [Compound C12]
IC50 [2, 8]: 1.7 ± 0.72 µM

CC(C)=CCC/C(C)=C/CC/C(C)=C/Cc1c(O)c(Cl)cc(C=O)c1O [Compound D1]
IC50 [1]: > 50 µM | IC50 [2, 7]: 0.088 ± 0.013 µM | IC50 [3, 9]: 0.274 ± 0.025 µM

CC(C)=CCC/C(C)=C/CC/C(C)=C/Cc1c(O)c(Cl)c(C)c(C=O)c1O [Compound D2]
IC50 [1]: > 50 µM | IC50 [2, 5]: 0.309 ± 0.021 µM | IC50 [2, 7]: 0.309 ± 0.021 µM | IC50 ([2]; IC50 against E. multilocularis complex II (SQR), figure legends, supplement): 0.3 µM | IC50 [3, 9]: 0.008 ± 0.002 µM | selectivity complex III over complex II (aerobic vs anaerobic) ([3]; IC50 complex II 0.309 μM vs complex III 0.008 μM): 38 fold | day of complete elimination of protoscoleces ([4]; aerobic culture): ≤ 4 days | day of complete elimination of protoscoleces ([4]; anaerobic culture (O2 <0.3%)): 6 days | antiparasitic effect on protoscoleces in culture assay [4]: strong antiparasitic effect

CC(=O)c1c(C)c(Cl)c(O)c(C/C=C(\C)CC/C=C(\C)CCC=C(C)C)c1O [Compound D3]
IC50 [1]: > 50 µM | IC50 [2, 7]: 0.135 ± 0.014 µM | IC50 [3, 9]: 0.014 ± 0.002 µM

CC(=O)c1cc(Cl)c(O)c(C/C=C(\C)CC/C=C(\C)CCC=C(C)C)c1O [Compound D4]
IC50 [1]: > 50 µM | IC50 [2, 7]: 0.037 ± 0.008 µM | IC50 [3, 9]: 0.109 ± 0.009 µM | elimination of protoscoleces on day 7 ([4]; aerobic culture, day 7): 34% | elimination of protoscoleces by day 7 ([4]; anaerobic culture (O2 <0.3%), day 7): 65% | antiparasitic effect on protoscoleces in culture assay [4]: weak

CC(=O)c1c(C)c(Cl)c(O)c(C/C=C(\C)CCC=C(C)C)c1O [Compound D6]
IC50 [2, 6]: 0.21 ± 0.022 µM
